Experimental data reported in US20050107293A1, “Protein modification and maintenance molecules” (priority 2001, published 2005).

Legend:
[1] = greater than progesterone; cited from earlier work
liver C3A cells = assay: Microarray analysis of SEQ ID NO:49 expression in steroid-treated C3A cells; assay type: cell-based, human; details: for differential expression of SEQ ID NO:49: liver C3A cells treated with one steroid, microarray
Description: The human C3A cell line is a clonal derivative of HepG2/C3 and has been established as an in vitro model of the mature human liver (Mickelson et al. (1995) Hepatology 22:866-875; Nagendra et al. (1997) Am J Physiol 272:G408-G416). […] These experiments indicate that SEQ ID NO:49 is useful in diagnostic assays for liver diseases and as a potential biological marker and therapeutic agent in the treatment of liver diseases and disorders.

C3A cells = assay: Microarray analysis of SEQ ID NO:59 expression in C3A cells treated with progesterone or budenoside; assay type: cell-based, human; details: early confluent C3A cells, 10 μM, at each time point (1, 3, and 6 hours), versus untreated C3A cells
Description: The human C3A cell line is a clonal derivative of HepG2/C3 (hepatoma cell line, isolated from a person with liver tumor), which was selected for strong contact inhibition of growth. The use of a clonal population enhances the reproducibility of the cells. C3A cells have many characteristics of primary human hepatocytes in culture: i) expression of insulin receptor and insulin-like growth factor II receptor; ii) secretion of a high ratio of serum albumin compared with α-fetoprotein iii) conversion of ammonia to urea and glutamine; iv) metabolism of aromatic amino acids; and v) proliferation in glucose-free and insulin-free medium. The C3A cell line is now well established as an in vitro model of the mature human liver (Mickelson et al. (1995) Hepatology 22:866-875; Nagendra et al. (1997) Am J Physiol 272:G408-G416). Early Confluent C3A cells were treated with progesterone or budenoside at 1, 10, and 100 μM for 1, 3, and 6 hours. The treated cells were compared to untreated early confluent C3A cells. […] Therefore, SEQ ID NO:59 may be useful in monitoring of, and diagnostic assays for steroid hormone-induced responses.

Row | Compound | pharmacological activity relative to progesterone [1] | decrease in expression of SEQ ID NO:5 (liver C3A cells; early confluent C3A cells treated for 1, 3, or 6 hours, at a minimum of two out of the three time points) | differential expression of SEQ ID NO:49 (liver C3A cells) | expression of SEQ ID NO:59 (C3A cells)
1 | 6α-methyl-17-hydroxyprogesterone [Medroxyprogesterone] | about 15 times | – | – | –
2 | C[C@H]1C[C@H]2[C@@H]3CCC4=CC(=O)C=C[C@]4(C)[C@@]3(Cl)[C@@H](O)C[C@]2(C)[C@@]1(O)C(=O)CO [beclomethasone] | – | at least a two-fold decrease | differential expression | –
3 | CC(=O)[C@H]1CC[C@H]2[C@@H]3CCC4=CC(=O)CC[C@]4(C)[C@H]3CC[C@]12C [progesterone] | – | – | differential expression | decreased by at least two-fold
